Reference: patent US20230146455A1, “TREATMENT OF INFLAMMATORY DISEASES WITH PEPTIDES AND PHARMACEUTICAL COMPOSITIONS” (Yuyu Pharma, Inc., priority 2020, published 2023)
Several values for one entry are separate records, joined by “and”; a condition that tells them apart may be missing. Identical values can stand only once. Like-named read-outs stand apart in the source and are kept apart here. Where a SMILES comes first, the peptide text is derived from it. [ ]: non-standard residue; d: D form. Hyp = O=C(O)[C@@H]1C[C@@H](O)CN1

Columns and labels:
[1] = system: IL-6 cytokine release in poly I:C stimulated primary human corneal epithelial cells; assay: Soluble IL-6 cytokine release in poly I:C stimulated primary human corneal epithelial cells by ELISA (Example 6); assay type: cell-based
From the text: To determine the effect of compound by assessing the soluble IL-6 cytokine release in poly I:C stimulated primary human corneal epithelial cells by ELISA. • Test System: Primary Human Corneal Epithelial cells • Assay Format: 96-well plate format • Method of Detection: Enzyme-linked immunosorbent assay • Assay Controls: Hinokitiol Assay protocol as shown below was used to determine the significant effect of test compounds. The data was statistically analyzed by one-way ANOVA with a Bonferroni post test comparing all the columns. The significance was represented by the p value.

[2] = Apparent permeability, 21 day cultured Caco-2 cell monolayer, bi-directional (Example 7); assay type: in vitro ADME; details: Caco-2, 2 μM, 120 minutes; for recovery at 120 min, 2 μM: human
Method: (§1) 10 mM stock solution of test compound was prepared in DMSO. 10 mM stock was diluted with 100% DMSO to prepare 0.2 mM, 0.2 mM stock was diluted with HBSS buffer to a final concentration of 2 μM.
(§2) Add 250 μL of DMEM to the basal compartment of 96 well multi-screen Caco-2 plates and seed 12000 cells/well (0.16×10^6 cells/ml) in all the apical wells required and 2 wells with only media as blank without cells. Place the Caco-2 plate in CO2 incubator at 37° C. for proliferation of cells.
(§3) The utilized media was replenished every alternate day by fresh medium. On 21st day, utilized medium was removed and washed twice with HBSS Buffer and incubated with HBSS buffer 30 min in incubator and initiated the assay.
(§4) 75 μL of test compound was added to apical wells and 250 μL of HBSS buffer with 1% DMSO was added to basal wells. Samples were collected at 120 min and processed as stated below.
(§5) 250 μL of test compound was added to basal wells and 75 μL of HBSS buffer with 1% DMSO was added to apical wells. Samples were collected at 120 min and processed as stated below.
(§6) Single point calibration curve in HBSS buffer was used. 100 μL of supernatant was diluted with 200 μL of water and submitted for LC-MS/MS analysis.
(§7) Efflux ratio=Papp of basal to apical samples/Papp of apical to basal samples
(§8) Recovery: {(dQ of Apical+dQ of Basal)/Standard dQ}*100

[3] = system: Caco-2 cells monolayer; assay: as above; assay type: in vitro ADME
Method: as §1, §2, §3, §4, §5, §6, §7, §8

[4] = system: IL-6 release in human PBMCs stimulated by poly(I:C), LPS or PMA/Ionomycin; assay: IL-6 ELISA in stimulated human PBMCs, 2nd pilot study (Example 8); assay type: cell-based; details: for IL-6 (ELISA), individual wells / IL-6 (ELISA), Mean: 24 hr
Method: Human PBMCs frozen in a cryopreserve was thawed, washed with Hank's Balanced Salt Solution containing 10% Fetal bovine serum, and seeded onto a 24-well plate at a density of 1×10^6 cells/well with culture RPMI media containing 10% Fetal bovine serum in growth media in a 24 well plate for 12, 24, and 48 hrs and maintained at 37° C. in an atmosphere of 95% air and 5% CO2.
Human PBMCs was pretreated with a test compound; YDE-011 at 30 uM, 1 μM for 2 h before stimulation. An equal volume of 0.5% DMSO was used as a vehicle control. […] The supernatants from treated cells were harvested at 24 h and placed in 96 well for Human IL-6 ELISAS measurement according to the manufacturer's instructions (Invitrogen, CA, USA). […]
IL-6 measurement was performed by the sandwich ELISA method. The capture antibody was coated on a 96-well plate (Corning™ Costar™ 9018, NY, USA) at 100 ul/well and incubated overnight at 4° C. The interaction was blocked at room temperature for 2 h to prevent non-specific binding of the antigen-antibody. Then, the plate was incubated overnight at 4° C. with 1:200 diluted cell supernatants and standard dilute serial dilutions at 100 ul/well. Detection antibody was dispensed into the plate at 100 ul/well, and then allowed to incubate at a room temperature for 1 h. Finally, streptavidin-HRP (100 ul/well) was incubated at room temperature for 30 min. […] The sample reading was measured at 450 nm wavelength and 570 nm, and the quantification of the sample was converted as concentration (ng/ml) based on the standard curve extrapolation.

[5] = system: rats with ELGE dry eye condition; assay: Corneal damage induced by ELGE in rats; assay type: in vivo, rat

## CC(C)C[C@H](NC(=O)CNC(=O)[C@H](CC(C)C)NC(=O)[C@H](CCC(N)=O)NC(=O)CNC(=O)[C@@H]1C[C@@H](O)CN1)C(=O)N[C@@H](C)C(=O)NCC(=O)N1CCC[C@H]1C(=O)N[C@@H](CCCCN)C(=O)O [YDE-011] (H-[Hyp]GQLGLAGPK-OH)
[1]
  Poly I:C induced IL-6 cytokine release (in words): attenuate Poly I:C induced of IL-6 cytokine release in a dose dependent manner
  tested concentrations with significant attenuation of IL-6 cytokine release: 30 μM, 10 μM, 1 μM and 0.1 μM
[2]; read-out: A to B % Recovery
  recovery at 120 min, 2 μM: 15%
[2]; read-out: B to A % Recovery
  recovery at 120 min, 2 μM: 88.5%
[3]
  Classification (Caco-2 Permeability): LOW
[4]; 1 uM, poly I:C, LPS or PMA/Ionomycin
  IL-6 induction in PBMCs (in words): effectively and significantly reduced IL-6 induction
[4]; PBMC + LPS(5 ug/ml) + YDE-011 1 uM
  IL-6 (ELISA), individual wells: 14532.1 and 12561.2
[4]; PBMC + LPS(5 ug/ml) + YDE-011 1 uM, LPS alone Mean 26093.3
  IL-6 (ELISA), Mean: 13546.7
[4]; PBMC + LPS(5 ug/ml) + YDE-011 30 uM
  IL-6 (ELISA), individual wells: 23199.5 and 18310.8
[4]; PBMC + LPS(5 ug/ml) + YDE-011 30 uM, LPS alone Mean 26093.3
  IL-6 (ELISA), Mean: 20755.2
[4]; PBMC + PMA(1 ng/ml)/Ionomycin(0.5 ug/ml) + YDE-011 1 uM
  IL-6 (ELISA), individual wells: 2817.2 and 3828.2
[4]; PBMC + PMA(1 ng/ml)/Ionomycin(0.5 ug/ml) + YDE-011 1 uM, stimulant alone Mean 4075.5
  IL-6 (ELISA), Mean: 3322.7
[4]; PBMC + PMA(1 ng/ml)/Ionomycin(0.5 ug/ml) + YDE-011 30 uM
  IL-6 (ELISA), individual wells: 3114.6 and 3025
[4]; PBMC + PMA(1 ng/ml)/Ionomycin(0.5 ug/ml) + YDE-011 30 uM, stimulant alone Mean 4075.5
  IL-6 (ELISA), Mean: 3069.8
[4]; PBMC + Poly I:C(25 ug/ml) + YDE-011 1 uM
  IL-6 (ELISA), individual wells: 13701 and 12585.1
[4]; PBMC + Poly I:C(25 ug/ml) + YDE-011 1 uM, Poly I:C alone Mean 21429.5
  IL-6 (ELISA), Mean: 13143.1
[4]; PBMC + Poly I:C(25 ug/ml) + YDE-011 30 uM
  IL-6 (ELISA), individual wells: 39230.7 and 30634.7
[4]; PBMC + Poly I:C(25 ug/ml) + YDE-011 30 uM, Poly I:C alone Mean 21429.5
  IL-6 (ELISA), Mean: 34932.7
[4]; higher concentration
  IL-6 induction in PBMCs (in words): diminished at a higher concentration
[4]; pilot studies
  IL-6 levels induced by LPS or poly I:C (in words): significantly reduced IL-6 levels induced by LPS or poly I:C

## CC(C)C[C@H](NC(=O)[C@H](CCC(N)=O)NC(=O)CNC(=O)[C@@H]1C[C@@H](O)CN1)C(=O)NCC(=O)O [YDE-043] (H-[Hyp]GQLG-OH; N-terminus and C-terminus assumed)
[1]
  Poly I:C induced IL-6 cytokine release (in words): attenuate Poly I:C induced of IL-6 cytokine release in a dose dependent manner
  tested concentrations with significant attenuation of IL-6 cytokine release: 30 μM, 10 μM, 1 μM and 0.1 μM
[2]; read-out: A to B % Recovery
  recovery: 34%
[2]; read-out: B to A % Recovery
  recovery: 67.2%
[3]
  Classification (Caco-2 Permeability): LOW
[5]
  corneal damage induced by ELGE (in words): effective in improving corneal damaged induced by ELGE
